Experimental data: ChEMBL document CHEMBL5465560, “Selectivity Literature for EUbOPEN Chemogenomic Library” (2024)

Assays:
[1] = target: Protein-tyrosine kinase 2-beta (Homo sapiens) (UniProt Q14289); assay: Selectivity interaction (Kinase screening (Nanosyn)) EUB0000604a PTK2B
[2] = target: Casein kinase II subunit alpha (Homo sapiens, UniProt P68400); assay: Selectivity interaction (Kinase panel (Invitrogen)) EUB0000639a CSNK2A1; settings: at 200 nM
[3] = target: T1, Serine/threonine-protein kinase D3 (Homo sapiens) (UniProt O94806); assay: Selectivity interaction (KinomeScan (DiscoverX)) EUB0000695a PRKD3; settings: at 100 nM
T1 sequence (whole entry): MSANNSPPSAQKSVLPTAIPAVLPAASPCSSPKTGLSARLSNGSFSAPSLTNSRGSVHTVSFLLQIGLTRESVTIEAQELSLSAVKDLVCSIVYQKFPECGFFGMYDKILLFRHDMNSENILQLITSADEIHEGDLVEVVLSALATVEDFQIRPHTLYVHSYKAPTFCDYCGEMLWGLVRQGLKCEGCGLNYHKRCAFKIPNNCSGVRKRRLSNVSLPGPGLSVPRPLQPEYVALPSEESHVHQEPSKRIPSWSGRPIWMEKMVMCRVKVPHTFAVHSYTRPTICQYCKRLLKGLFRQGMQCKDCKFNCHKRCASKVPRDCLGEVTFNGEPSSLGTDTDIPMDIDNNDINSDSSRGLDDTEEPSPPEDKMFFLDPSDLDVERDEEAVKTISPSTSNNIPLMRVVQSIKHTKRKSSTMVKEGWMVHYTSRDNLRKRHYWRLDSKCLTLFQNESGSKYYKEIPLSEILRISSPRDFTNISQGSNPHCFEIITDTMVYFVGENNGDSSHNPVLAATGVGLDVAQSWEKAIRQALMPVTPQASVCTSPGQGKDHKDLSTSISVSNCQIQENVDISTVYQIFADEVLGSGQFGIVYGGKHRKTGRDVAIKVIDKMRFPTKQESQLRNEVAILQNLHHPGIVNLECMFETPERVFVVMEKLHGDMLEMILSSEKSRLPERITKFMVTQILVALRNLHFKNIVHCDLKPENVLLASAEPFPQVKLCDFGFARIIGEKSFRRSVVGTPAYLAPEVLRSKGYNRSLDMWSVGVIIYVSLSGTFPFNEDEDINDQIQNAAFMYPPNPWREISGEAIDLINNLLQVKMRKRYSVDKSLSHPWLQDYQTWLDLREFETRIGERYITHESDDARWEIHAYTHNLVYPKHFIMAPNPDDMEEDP

[4] = target: T2, Serine/threonine-protein kinase LATS2 (Homo sapiens) (UniProt Q9NRM7); settings: at 10 µM
T2 sequence (whole entry): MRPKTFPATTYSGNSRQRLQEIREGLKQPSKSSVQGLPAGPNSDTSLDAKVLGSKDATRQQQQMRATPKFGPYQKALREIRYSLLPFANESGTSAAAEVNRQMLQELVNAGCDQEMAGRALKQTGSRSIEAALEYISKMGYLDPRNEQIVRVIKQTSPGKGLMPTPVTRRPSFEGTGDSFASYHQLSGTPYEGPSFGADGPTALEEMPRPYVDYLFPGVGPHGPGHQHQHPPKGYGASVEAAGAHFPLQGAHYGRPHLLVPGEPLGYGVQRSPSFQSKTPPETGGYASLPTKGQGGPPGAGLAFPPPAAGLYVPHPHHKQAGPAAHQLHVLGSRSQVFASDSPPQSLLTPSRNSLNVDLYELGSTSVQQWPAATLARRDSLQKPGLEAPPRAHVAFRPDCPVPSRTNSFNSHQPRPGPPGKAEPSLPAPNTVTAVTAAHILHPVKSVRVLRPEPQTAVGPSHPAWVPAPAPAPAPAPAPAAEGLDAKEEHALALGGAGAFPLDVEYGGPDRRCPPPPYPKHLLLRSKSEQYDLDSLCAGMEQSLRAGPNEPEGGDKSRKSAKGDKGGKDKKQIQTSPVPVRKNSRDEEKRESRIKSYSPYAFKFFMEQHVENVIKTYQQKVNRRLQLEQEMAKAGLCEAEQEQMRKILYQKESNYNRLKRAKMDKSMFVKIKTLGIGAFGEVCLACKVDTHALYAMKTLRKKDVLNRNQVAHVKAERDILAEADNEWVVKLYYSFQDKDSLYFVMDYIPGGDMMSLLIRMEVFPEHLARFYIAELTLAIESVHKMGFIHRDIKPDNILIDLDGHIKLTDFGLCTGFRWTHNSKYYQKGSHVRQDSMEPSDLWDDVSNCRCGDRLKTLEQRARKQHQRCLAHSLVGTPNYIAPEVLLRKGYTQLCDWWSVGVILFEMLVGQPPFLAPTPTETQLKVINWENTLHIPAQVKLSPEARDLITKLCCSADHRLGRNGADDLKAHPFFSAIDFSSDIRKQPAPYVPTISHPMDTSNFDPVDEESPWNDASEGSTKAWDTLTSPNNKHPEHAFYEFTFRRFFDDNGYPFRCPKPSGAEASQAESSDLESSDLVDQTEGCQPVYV

[5] = target: Casein kinase I isoform gamma-1 (Homo sapiens) (UniProt Q9HCP0); assay: Selectivity interaction (KinomeScan (DiscoverX)) EUB0000595a CSNK1G1; settings: at 10 µM
Sequence of Casein kinase I isoform gamma-1 (Homo sapiens) (Q9HCP0 whole entry, looked up, canonical isoform): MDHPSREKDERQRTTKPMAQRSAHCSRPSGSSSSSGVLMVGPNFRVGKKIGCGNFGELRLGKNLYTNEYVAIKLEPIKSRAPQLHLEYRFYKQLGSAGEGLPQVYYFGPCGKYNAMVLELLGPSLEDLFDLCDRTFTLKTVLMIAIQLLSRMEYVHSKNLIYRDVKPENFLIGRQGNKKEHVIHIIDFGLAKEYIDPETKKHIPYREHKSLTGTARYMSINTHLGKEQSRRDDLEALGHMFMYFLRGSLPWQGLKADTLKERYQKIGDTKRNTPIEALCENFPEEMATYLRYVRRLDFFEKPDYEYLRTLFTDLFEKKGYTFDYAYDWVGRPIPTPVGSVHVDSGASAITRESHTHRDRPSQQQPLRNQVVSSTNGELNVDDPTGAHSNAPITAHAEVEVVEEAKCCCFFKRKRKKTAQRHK

[6] = target: T3, 3-phosphoinositide-dependent protein kinase 1 (Homo sapiens) (UniProt O15530); assay: Selectivity interaction (KinomeScan (DiscoverX)) EUB0001079a PDPK1; settings: at 1 µM
T3 sequence (whole entry): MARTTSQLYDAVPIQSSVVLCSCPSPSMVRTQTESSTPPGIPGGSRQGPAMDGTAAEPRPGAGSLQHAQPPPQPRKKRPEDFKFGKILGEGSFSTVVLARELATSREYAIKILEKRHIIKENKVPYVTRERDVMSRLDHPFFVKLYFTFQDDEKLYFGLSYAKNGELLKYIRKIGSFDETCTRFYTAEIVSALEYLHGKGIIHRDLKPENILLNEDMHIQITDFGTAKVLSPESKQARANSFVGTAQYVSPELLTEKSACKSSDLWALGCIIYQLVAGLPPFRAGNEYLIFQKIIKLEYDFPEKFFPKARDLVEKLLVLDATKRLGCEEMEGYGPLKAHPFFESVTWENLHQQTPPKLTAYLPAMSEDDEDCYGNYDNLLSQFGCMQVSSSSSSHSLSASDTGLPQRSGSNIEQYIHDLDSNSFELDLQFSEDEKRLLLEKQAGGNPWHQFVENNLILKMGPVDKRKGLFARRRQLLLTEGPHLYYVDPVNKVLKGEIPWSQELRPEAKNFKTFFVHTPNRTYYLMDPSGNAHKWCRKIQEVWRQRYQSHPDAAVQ

[7] = target: Serine/threonine-protein kinase ATR (Homo sapiens) (UniProt Q13535); assay: Selectivity interaction (ActivX KiNativ screen (ex vivo kinase selectivity in human PBMCs)) EUB0001619a ATR; assay type: cell-based; settings: PBMC, at 1 µM
Sequence of Serine/threonine-protein kinase ATR (Homo sapiens) (Q13535 whole entry, looked up): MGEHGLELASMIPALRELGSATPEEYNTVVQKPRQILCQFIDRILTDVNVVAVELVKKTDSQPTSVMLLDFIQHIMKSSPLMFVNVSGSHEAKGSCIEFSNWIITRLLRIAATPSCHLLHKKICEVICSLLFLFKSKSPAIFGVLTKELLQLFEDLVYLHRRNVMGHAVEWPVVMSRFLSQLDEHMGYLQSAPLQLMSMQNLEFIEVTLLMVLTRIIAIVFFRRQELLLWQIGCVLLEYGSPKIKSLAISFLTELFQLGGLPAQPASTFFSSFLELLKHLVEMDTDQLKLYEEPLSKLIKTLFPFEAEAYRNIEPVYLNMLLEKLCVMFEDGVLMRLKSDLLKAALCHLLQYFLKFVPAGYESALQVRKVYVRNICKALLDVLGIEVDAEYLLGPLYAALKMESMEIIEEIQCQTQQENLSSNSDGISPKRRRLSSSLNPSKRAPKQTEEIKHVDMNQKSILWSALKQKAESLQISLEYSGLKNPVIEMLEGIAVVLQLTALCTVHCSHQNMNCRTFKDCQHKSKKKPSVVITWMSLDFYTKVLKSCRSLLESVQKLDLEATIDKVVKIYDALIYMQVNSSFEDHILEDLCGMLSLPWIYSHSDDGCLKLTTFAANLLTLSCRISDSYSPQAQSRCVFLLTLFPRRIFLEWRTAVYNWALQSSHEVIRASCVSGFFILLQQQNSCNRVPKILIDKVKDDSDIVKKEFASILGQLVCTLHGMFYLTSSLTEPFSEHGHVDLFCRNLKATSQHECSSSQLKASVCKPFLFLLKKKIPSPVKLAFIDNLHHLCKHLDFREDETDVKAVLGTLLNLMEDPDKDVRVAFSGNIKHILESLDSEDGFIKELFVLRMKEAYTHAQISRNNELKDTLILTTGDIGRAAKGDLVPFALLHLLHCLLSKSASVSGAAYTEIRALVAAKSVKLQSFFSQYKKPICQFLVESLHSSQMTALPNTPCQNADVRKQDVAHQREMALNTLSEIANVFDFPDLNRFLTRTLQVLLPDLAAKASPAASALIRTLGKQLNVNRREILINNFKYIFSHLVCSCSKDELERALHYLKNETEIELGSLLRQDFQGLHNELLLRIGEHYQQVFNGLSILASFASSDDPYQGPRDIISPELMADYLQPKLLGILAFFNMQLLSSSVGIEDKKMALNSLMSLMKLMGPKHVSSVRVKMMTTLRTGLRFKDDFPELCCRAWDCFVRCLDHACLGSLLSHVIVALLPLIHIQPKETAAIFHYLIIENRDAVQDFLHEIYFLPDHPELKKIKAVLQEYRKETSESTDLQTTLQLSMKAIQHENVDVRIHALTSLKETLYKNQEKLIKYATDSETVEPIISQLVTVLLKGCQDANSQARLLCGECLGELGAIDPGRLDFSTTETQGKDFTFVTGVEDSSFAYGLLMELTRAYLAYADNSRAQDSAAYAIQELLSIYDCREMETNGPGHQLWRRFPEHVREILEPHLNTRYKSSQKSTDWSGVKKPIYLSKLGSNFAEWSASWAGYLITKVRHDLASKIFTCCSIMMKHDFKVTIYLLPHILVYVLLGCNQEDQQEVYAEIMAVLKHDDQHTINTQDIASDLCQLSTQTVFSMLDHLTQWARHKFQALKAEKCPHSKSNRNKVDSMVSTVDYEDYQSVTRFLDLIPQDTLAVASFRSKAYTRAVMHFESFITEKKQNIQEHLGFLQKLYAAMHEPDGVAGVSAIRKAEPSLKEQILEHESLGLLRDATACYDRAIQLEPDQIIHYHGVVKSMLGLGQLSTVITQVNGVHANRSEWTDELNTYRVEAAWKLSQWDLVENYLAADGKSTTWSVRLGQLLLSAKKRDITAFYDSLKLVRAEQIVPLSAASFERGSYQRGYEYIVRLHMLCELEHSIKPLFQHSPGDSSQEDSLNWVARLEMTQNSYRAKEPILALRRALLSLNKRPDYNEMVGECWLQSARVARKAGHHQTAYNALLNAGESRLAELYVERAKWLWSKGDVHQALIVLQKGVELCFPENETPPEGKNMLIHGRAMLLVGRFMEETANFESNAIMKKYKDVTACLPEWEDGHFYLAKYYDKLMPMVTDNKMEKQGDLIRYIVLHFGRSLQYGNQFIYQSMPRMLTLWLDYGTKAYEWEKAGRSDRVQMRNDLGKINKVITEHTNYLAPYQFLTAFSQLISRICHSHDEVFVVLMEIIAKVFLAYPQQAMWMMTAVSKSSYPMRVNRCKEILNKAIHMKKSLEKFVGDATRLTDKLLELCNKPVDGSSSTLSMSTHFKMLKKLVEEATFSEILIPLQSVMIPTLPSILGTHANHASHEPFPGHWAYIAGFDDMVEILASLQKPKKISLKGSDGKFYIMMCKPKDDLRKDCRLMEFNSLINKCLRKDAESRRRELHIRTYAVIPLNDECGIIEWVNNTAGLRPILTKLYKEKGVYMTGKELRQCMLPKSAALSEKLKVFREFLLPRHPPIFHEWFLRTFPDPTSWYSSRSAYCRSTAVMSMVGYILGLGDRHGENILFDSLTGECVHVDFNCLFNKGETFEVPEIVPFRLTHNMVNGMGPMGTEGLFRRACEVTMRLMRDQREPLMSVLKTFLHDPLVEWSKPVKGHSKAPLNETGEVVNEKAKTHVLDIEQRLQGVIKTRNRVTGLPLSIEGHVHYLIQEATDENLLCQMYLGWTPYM

[8] = target: Serine/threonine-protein kinase PAK 6 (Homo sapiens) (UniProt Q9NQU5); assay: Selectivity interaction (KinomeScan (DiscoverX)) EUB0001619a PAK6; settings: at 1 µM
Sequence of Serine/threonine-protein kinase PAK 6 (Homo sapiens) (Q9NQU5 whole entry, looked up): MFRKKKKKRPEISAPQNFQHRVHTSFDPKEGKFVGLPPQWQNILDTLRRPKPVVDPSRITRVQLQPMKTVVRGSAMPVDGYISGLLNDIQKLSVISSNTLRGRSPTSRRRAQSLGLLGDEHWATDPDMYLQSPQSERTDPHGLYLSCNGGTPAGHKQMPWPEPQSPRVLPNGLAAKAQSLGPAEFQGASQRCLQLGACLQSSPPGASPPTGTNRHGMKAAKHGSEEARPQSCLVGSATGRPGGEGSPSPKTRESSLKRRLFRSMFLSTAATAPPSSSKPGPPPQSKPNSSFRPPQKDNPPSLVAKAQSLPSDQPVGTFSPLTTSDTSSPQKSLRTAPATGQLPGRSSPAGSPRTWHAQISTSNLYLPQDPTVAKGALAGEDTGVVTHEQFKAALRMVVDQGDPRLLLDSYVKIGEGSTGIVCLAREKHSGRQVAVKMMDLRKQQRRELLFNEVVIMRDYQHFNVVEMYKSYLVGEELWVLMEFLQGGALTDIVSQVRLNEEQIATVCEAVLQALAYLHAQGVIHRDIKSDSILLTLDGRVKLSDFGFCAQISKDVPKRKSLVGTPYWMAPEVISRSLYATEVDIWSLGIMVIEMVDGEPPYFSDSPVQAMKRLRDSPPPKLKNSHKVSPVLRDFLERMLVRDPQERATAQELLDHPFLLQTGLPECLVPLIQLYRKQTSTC

[9] = Selectivity interaction (KinomeScan (DiscoverX)) EUB0000618a CDPK1; settings: at 10 µM

Sequence of Protein-tyrosine kinase 2-beta (Homo sapiens) (Q14289 whole entry, looked up): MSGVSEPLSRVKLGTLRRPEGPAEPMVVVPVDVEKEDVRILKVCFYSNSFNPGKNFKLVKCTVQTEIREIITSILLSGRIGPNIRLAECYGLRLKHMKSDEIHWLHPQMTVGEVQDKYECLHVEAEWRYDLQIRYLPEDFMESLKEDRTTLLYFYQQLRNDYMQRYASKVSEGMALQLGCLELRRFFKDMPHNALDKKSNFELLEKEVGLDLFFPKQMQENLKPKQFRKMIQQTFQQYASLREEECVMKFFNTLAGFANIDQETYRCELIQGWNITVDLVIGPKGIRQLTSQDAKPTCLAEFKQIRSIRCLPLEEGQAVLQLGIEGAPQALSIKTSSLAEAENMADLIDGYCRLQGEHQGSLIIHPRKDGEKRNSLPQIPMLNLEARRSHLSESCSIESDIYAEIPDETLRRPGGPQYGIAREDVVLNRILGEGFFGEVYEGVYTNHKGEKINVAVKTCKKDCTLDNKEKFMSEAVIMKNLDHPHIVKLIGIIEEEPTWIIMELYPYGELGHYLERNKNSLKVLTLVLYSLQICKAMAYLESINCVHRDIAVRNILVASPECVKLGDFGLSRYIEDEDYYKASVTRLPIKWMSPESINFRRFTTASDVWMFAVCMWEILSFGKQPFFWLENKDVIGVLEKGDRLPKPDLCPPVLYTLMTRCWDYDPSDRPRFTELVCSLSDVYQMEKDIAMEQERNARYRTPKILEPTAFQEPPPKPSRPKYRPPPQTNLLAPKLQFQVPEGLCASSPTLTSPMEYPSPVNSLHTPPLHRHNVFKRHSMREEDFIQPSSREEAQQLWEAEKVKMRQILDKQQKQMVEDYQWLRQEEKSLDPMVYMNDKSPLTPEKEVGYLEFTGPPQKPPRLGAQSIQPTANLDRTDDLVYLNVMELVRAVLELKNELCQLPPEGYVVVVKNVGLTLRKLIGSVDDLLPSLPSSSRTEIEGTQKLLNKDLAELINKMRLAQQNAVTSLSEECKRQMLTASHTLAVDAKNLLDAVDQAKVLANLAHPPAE

Cc1cnc(Nc2ccc(F)cc2Cl)nc1-c1c[nH]c(C(=O)N[C@H](CO)c2cccc(Cl)c2)c1 showed a % of inhibition [1] of 6%.

With CC[C@@H]1[C@H](F)C(=O)N[C@@H]1COc1nccc2cc(C(N)=O)c(OC)cc12 [ZIMLOVISERTIB] the % of inhibition [2] was -1.15%.

With Cc1cc(F)c(C(=O)Nc2cccc(-c3nncn3C(C)C)n2)cc1-n1cnc(C2CC2)c1 the % of control [3] was 78%.

CCN(CC)CCCCNc1ncc2cc(-c3cc(OC)cc(OC)c3)c(NC(=O)NC(C)(C)C)nc2n1 gave a % of control [4] of 100%.

For COCC(=O)NC/C=C/c1ccc2ncnc(Nc3ccc(Oc4ccc(C)nc4)c(C)c3)c2c1 [CP-724714], the % of control [5] was 100%.

Compound Nc1cnc(N2CCc3cc(S(=O)(=O)Nc4c(F)cc(Cl)cc4F)cc(N4CCCC4=O)c32)nc1 [TP-020n] has a % of control [6] of 98%.

N#Cc1cccc(-c2c[nH]c3ncnc(N4CCOCC4)c23)c1 gave a % of inhibition [7] of 25% and a % of control [8] of 78%.

Work on O[C@H]1CC[C@H](Nc2ncc3nc(Nc4c(F)cc(F)cc4F)n([C@H]4CCOC4)c3n2)CC1 yielded a % of control [9] of 1.5%.
